# According to the NIST ThermoML archive (doi:10.1021/acs.jced.9b00441):
# ± gives the expanded uncertainty stated by the source.
# Experiments:
# [1] = Liquid; for mass density: 101.33 kPa, Vibrating tube method; for vapor or sublimation pressure: Closed cell (Static) method
# [2] = refractive index (Na D-line) (dimensionless); settings: 101.33 kPa, Liquid, Standard Abbe refractometry
SMILES,mass density ([1]; 298.15 K) [kg/m3],mass density ([1]; 293.15 K) [kg/m3],refractive index ([2]; 293.15 K),also measured
CCCCCC [hexane],654 ± 1,,,refractive index ([2]; 298.15 K): 1.375 ± 0.001
CC1CCCCC1 [methylcyclohexane],,769 ± 1,1.423 ± 0.001,
FC(F)=C(F)C(F)(F)F [hexafluoropropene],,,,vapor or sublimation pressure ([1]; 302.94 K): 838 ± 7 kPa; vapor or sublimation pressure ([1]; 312.91 K): 1094 ± 7 kPa; vapor or sublimation pressure ([1]; 322.94 K): 1407 ± 8 kPa; vapor or sublimation pressure ([1]; 332.94 K): 1783 ± 8 kPa; vapor or sublimation pressure ([1]; 342.92 K): 2225 ± 8 kPa
C1CCCCC1 [cyclohexane],775 ± 1,,1.423 ± 0.001,
"OCC(F)(F)C(F)(F)C(F)(F)F [2,2,3,3,4,4,4-heptafluorobutanol]",,1580 ± 2,1.264 ± 0.001,
CC1CCCO1 (stereo not given) [2-methyltetrahydrofuran],,855 ± 1,,refractive index ([2]; 294.15 K): 1.405 ± 0.001
